Test results as given in the supplement of paper PMC11061612.

Assays:
Prexasertib = compound: COc1cccc(OCCCN)c1-c1cc(Nc2cnc(C#N)cn2)n[nH]1 [Prexasertib]; details: max 1 µM
Procedure, shortened: (§1)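 Cancer cell lines were dosed for 72 hours (final DMSO typically 0.2%) after 24 hours at 37°C and 5% CO2 in 1536-well plates containing 7.5 μl DMEM/F12 or RPMI with 10% FBS. Viability came from CellTiter-Glo 2.0 luminescence, scaled between blank-well and DMSO-well means, and dose responses were fitted to a two-parameter logistic curve with a non-linear mixed effects model. The single-agent IC50 was obtained from this fit.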

Savolitinib = compound: C[C@@H](c1ccc2nccn2c1)n1nnc2ncc(-c3cnn(C)c3)nc21 [Savolitinib]; details: max 1 µM
Procedure, shortened: as §1

Gefitinib = compound: COc1cc2ncnc(Nc3ccc(F)c(Cl)c3)c2cc1OCCCN1CCOCC1 [Gefitinib]; details: max 10 µM
Procedure, shortened: as §1

MK-2206 = compound: NC1(c2ccc(-c3nc4ccn5c(=O)[nH]nc5c4cc3-c3ccccc3)cc2)CCC1 [MK-2206]; details: max 10 µM
Procedure, shortened: as §1

AZD7648 = compound: Cc1cc2ncnn2cc1Nc1ncc2c(n1)n(C1CCOCC1)c(=O)n2C [AZD7648]; details: max 10 µM
Procedure, shortened: as §1

Dasatinib = compound: CC1=C(C(=CC=C1)Cl)NC(=O)C2=CN=C(S2)NC3=CC(=NC(=N3)C)N4CCN(CC4)CCO [Dasatinib]; details: max 2 µM
Procedure, shortened: as §1

AZD5153 = compound: COc1nnc2ccc(N3CCC(c4ccc(OCCN5CCN(C)C(=O)[C@H]5C)cc4)CC3)nn12 [AZD5153]; details: max 1 µM
Procedure, shortened: as §1

AZD8186 = compound: C[C@@H](Nc1cc(F)cc(F)c1)c1cc(C(=O)N(C)C)cc2c(=O)cc(N3CCOCC3)oc12 [AZD8186]; details: max 10 µM
Procedure, shortened: as §1

Olaparib = compound: O=C(c1cc(Cc2n[nH]c(=O)c3ccccc23)ccc1F)N1CCN(C(=O)C2CC2)CC1 [Olaparib]; details: max 10 µM
Procedure, shortened: as §1

AZD4320 = compound: CN(CC[C@H](CSC1=CC=CC=C1)NC2=C(C=C(C=C2)S(=O)(=O)NC(=O)C3=CC=C(C=C3)N4CCC(CC4)[C@H](C5=CC=CC=C5C6=CC=C(C=C6)Cl)O)S(=O)(=O)C(F)(F)F)CCO [AZD4320]; details: max 1 µM
Procedure, shortened: as §1

Palbociclib = compound: CC(=O)c1c(C)c2cnc(Nc3ccc(N4CCNCC4)cn3)nc2n(C2CCCC2)c1=O [Palbociclib]; details: max 10 µM
Procedure, shortened: as §1

AZD1390 = compound: CC(C)n1c(=O)n(C)c2cnc3cc(F)c(-c4ccc(OCCCN5CCCCC5)nc4)cc3c21 [AZD1390]; details: max 0.3 µM
Procedure, shortened: as §1

Carboplatin = compound: C1CC(C1)(C(=O)[O-])C(=O)[O-].N.N.[Pt+2] [Carboplatin]; details: max 10 µM
Procedure, shortened: as §1

Lapatinib = compound: CS(=O)(=O)CCNCc1ccc(-c2ccc3ncnc(Nc4ccc(OCc5cccc(F)c5)c(Cl)c4)c3c2)o1 [Lapatinib]; details: max 10 µM
Procedure, shortened: as §1

Gemcitabine = compound: Nc1ccn([C@@H]2O[C@H](CO)[C@@H](O)C2(F)F)c(=O)n1 [Gemcitabine]; details: max 0.3 µM
Procedure, shortened: as §1

Doxorubicin = compound: COc1cccc2c1C(=O)c1c(O)c3c(c(O)c1C2=O)C[C@@](O)(C(=O)CO)C[C@@H]3O[C@H]1C[C@H](N)[C@H](O)[C@H](C)O1 [Doxorubicin]; details: max 1 µM
Procedure, shortened: as §1

Paclitaxel = compound: CC(=O)O[C@H]1C(=O)[C@@]2(C)[C@H]([C@H](OC(=O)c3ccccc3)[C@]3(O)C[C@H](OC(=O)[C@H](O)[C@@H](NC(=O)c4ccccc4)c4ccccc4)C(C)=C1C3(C)C)[C@]1(OC(C)=O)CO[C@@H]1C[C@@H]2O [Paclitaxel]; details: max 3 µM
Procedure, shortened: as §1

Alisertib = compound: COc1cc(Nc2ncc3c(n2)-c2ccc(Cl)cc2C(c2c(F)cccc2OC)=NC3)ccc1C(=O)O [Alisertib]; details: max 10 µM
Procedure, shortened: as §1

AZD0156 = compound: CN(C)CCCOc1ccc(-c2ccc3ncc4c(c3c2)n(C2CCOCC2)c(=O)n4C)cn1 [AZD0156]; details: max 3 µM
Procedure, shortened: as §1

AZD5363 = compound: C1CN(CCC1(C(=O)N[C@@H](CCO)C2=CC=C(C=C2)Cl)N)C3=NC=NC4=C3C=CN4 [AZD5363]; details: max 10 µM
Procedure, shortened: as §1

5-Fluorouracil = compound: O=c1[nH]cc(F)c(=O)[nH]1 [5-Fluorouracil]; details: max 20 µM
Procedure, shortened: as §1

AZD6738 = compound: C[C@@H]1COCCN1C2=NC(=NC(=C2)C3(CC3)[S@](=N)(=O)C)C4=C5C=CNC5=NC=C4 [AZD6738]; details: max 10 µM
Procedure, shortened: as §1

Trametinib = compound: CC(=O)Nc1cccc(-n2c(=O)n(C3CC3)c(=O)c3c(Nc4ccc(I)cc4F)n(C)c(=O)c(C)c32)c1 [Trametinib]; details: max 1 µM
Procedure, shortened: as §1

Taselisib = compound: Cc1nc(-c2cn3c(n2)-c2ccc(-c4cnn(C(C)(C)C(N)=O)c4)cc2OCC3)n(C(C)C)n1 [Taselisib]; details: max 10 µM
Procedure, shortened: as §1

AZD1775 = compound: C=CCn1c(=O)c2cnc(Nc3ccc(N4CCN(C)CC4)cc3)nc2n1-c1cccc(C(C)(C)O)n1 [AZD1775]; details: max 3 µM
Procedure, shortened: as §1

SN-38 = compound: CCc1c2c(nc3ccc(O)cc13)-c1cc3c(c(=O)n1C2)COC(=O)[C@]3(O)CC [SN-38]; details: max 0.3 µM
Procedure, shortened: as §1

SRA737 = compound: N#Cc1cnc(Nc2cc(NC[C@H]3CNCCO3)c(C(F)(F)F)cn2)cn1 [SRA737]; details: max 10 µM
Procedure, shortened: as §1

Crizotinib = compound: C[C@@H](Oc1cc(-c2cnn(C3CCNCC3)c2)cnc1N)c1c(Cl)ccc(F)c1Cl [Crizotinib]; details: max 10 µM
Procedure, shortened: as §1

[1] = compound: O=C(Nc1ccc2[nH]nc(-c3ccncc3)c2c1)[C@@H]1CCN(CC(=O)N2CCN(c3ccc(-c4ncccn4)cc3)CC2)C1; details: max 5 µM
Procedure, shortened: as §1

Venetoclax = compound: CC1(C)CCC(CN2CCN(c3ccc(C(=O)NS(=O)(=O)c4ccc(NCC5CCOCC5)c([N+](=O)[O-])c4)c(Oc4cnc5[nH]ccc5c4)c3)CC2)=C(c2ccc(Cl)cc2)C1 [Venetoclax]; details: max 1 µM
Procedure, shortened: as §1

Selumetinib = compound: Cn1cnc2c(F)c(Nc3ccc(Br)cc3Cl)c(C(=O)NOCCO)cc21 [Selumetinib]; details: max 10 µM
Procedure, shortened: as §1

AZD2811 = compound: CCN(CCO)CCCOc1ccc2c(Nc3cc(CC(=O)Nc4cccc(F)c4)[nH]n3)ncnc2c1 [AZD2811]; details: max 1 µM
Procedure, shortened: as §1

SG3199 = compound: CC1=CN2[C@@H](C1)C=NC3=CC(=C(C=C3C2=O)OC)OCCCCCOC4=C(C=C5C(=C4)N=C[C@@H]6CC(=CN6C5=O)C)OC [SG3199]; details: max 0.001 µM
Procedure, shortened: as §1

AZD5991 = compound: Cc1c2c(nn1C)CSCc1cc(n(C)n1)CSc1cc(c3ccccc3c1)OCCCc1c(C(=O)O)n(C)c3c-2c(Cl)ccc13 [AZD5991]; details: max 1 µM
Procedure, shortened: as §1

Etoposide = compound: COc1cc([C@@H]2c3cc4c(cc3[C@@H](O[C@@H]3O[C@@H]5CO[C@@H](C)O[C@H]5[C@H](O)[C@H]3O)[C@H]3COC(=O)[C@H]23)OCO4)cc(OC)c1O [Etoposide]; details: max 10 µM
Procedure, shortened: as §1

Cell Line	IC50, cell viability 72 h (Prexasertib) [nM]	IC50, cell viability 72 h (Savolitinib) [nM]	IC50, cell viability 72 h (Gefitinib) [nM]	IC50, cell viability 72 h (MK-2206) [nM]	IC50, cell viability 72 h (AZD7648) [nM]	IC50, cell viability 72 h (Dasatinib) [nM]	IC50, cell viability 72 h (AZD5153) [nM]	IC50, cell viability 72 h (AZD8186) [nM]	IC50, cell viability 72 h (Olaparib) [nM]	IC50, cell viability 72 h (AZD4320) [nM]	IC50, cell viability 72 h (Palbociclib) [nM]	IC50, cell viability 72 h (AZD1390) [nM]	IC50, cell viability 72 h (Carboplatin) [nM]	IC50, cell viability 72 h (Lapatinib) [nM]	IC50, cell viability 72 h (Gemcitabine) [nM]	IC50, cell viability 72 h (Doxorubicin) [nM]	IC50, cell viability 72 h (Paclitaxel) [nM]	IC50, cell viability 72 h (Alisertib) [nM]	IC50, cell viability 72 h (AZD0156) [nM]	IC50, cell viability 72 h (AZD5363) [nM]	IC50, cell viability 72 h (5-Fluorouracil) [nM]	IC50, cell viability 72 h (AZD6738) [nM]	IC50, cell viability 72 h (Trametinib) [nM]	IC50, cell viability 72 h (Taselisib) [nM]	IC50, cell viability 72 h (AZD1775) [nM]	IC50, cell viability 72 h (SN-38) [nM]	IC50, cell viability 72 h (SRA737) [nM]	IC50, cell viability 72 h (Crizotinib) [nM]	IC50, cell viability 72 h [1] [nM]	IC50, cell viability 72 h (Venetoclax) [nM]	IC50, cell viability 72 h (Selumetinib) [nM]	IC50, cell viability 72 h (AZD2811) [nM]	IC50, cell viability 72 h (SG3199) [nM]	IC50, cell viability 72 h (AZD5991) [nM]	IC50, cell viability 72 h (Etoposide) [nM]
WIL2-NS (Non-Cancerous)	6.04	> 1000	> 10000	6090	> 10000	1350	44.8	> 10000	> 10000	> 1000	629	> 300	> 10000	> 10000	7.8	105	10.7	927	> 3000	2380	> 20000	1260	> 1000	6950	231	4.65	1730	> 10000	> 5000	> 1000	> 10000	> 1000	> 1	> 1000	375
WM-115 (Melanoma)	486	> 1000	> 10000	> 10000	> 10000	> 2000	> 1000	3410	> 10000	> 1000	> 10000	> 300	> 10000	> 10000	> 300	633	387	> 10000	> 3000	> 10000	> 20000	> 10000	182	7270	> 3000	> 300	> 10000	> 10000	> 5000	> 1000	> 10000	> 1000	> 1	> 1000	> 10000
